Reference: patent US9642780B2, “Detection and removal of carious dentin tissue” (RLS Global AB, priority 2011, dated 2017)
Entries after “also recorded” stand apart in the source; their conditions may differ.

What was measured:
[1] = test system: carious dentin tissue of a pre molar tooth; experiment: Staining of a pre molar tooth cavity with Alexa 594 and removal with Carisolv and hand instrument
Protocol: Carious dentin tissue of a pre molar tooth was treated with Carisolv® to obtain a cavity and subsequently stained with an aqueous solution of the hydrazine derivative Alexa 594.
The concentration of the aqueous solution of the hydrazine derivative Alexa 594 was 15-50 mM. […] Carisolv® was added to the cavity and excavation took place with a hand instrument from Mediteam Dental AB to reach a carious free level. […] A dentist performed tactile control of this surface and confirmed that the surface was free of caries. […] The slightly stained surface was subjected to treatment with Carisolv® followed by excavation with a hand instrument. […] It was concluded that a hydrazine derivative such as Alexa 594 can be used in combination with a chemical means for carious dentin tissue such as Carisolv® for selective detection and removal of carious dentin tissue.

[2] = test system: carious dentin tissue of a pre molar tooth; experiment: Staining of a pre molar tooth with Alexa 594 and removal with a dentist's drill; settings: 15-50 mM aqueous solution, drilling and staining repeated several times
Protocol: Carious dentin tissue of a pre molar tooth stained with an aqueous solution of the hydrazine derivative Alexa 594 in a concentration of 15-50 mM was subjected to mechanical treatment by a dentist's drill until no staining could be visually detected. […] The stained surface was subjected to drilling until no staining could be visually detected. A dentist examined the surface visually and with a tactile instrument and concluded that the surface was free of caries. […] Again, drilling of the stained surface took place until no staining could be observed. […] Drilling and staining as described above in this example was repeated several times. […] It was concluded that selective detection and removal of carious dentin tissue using a hydrazine derivative in combination with a dentist's drill was not possible. […] This is in contrast to the successful selective detection and removal of carious dentin tissue using a hydrazine derivative in combination with a chemical means for treatment of carious dentin tissue as described in Example 5.

[3] = test system: carious tissue in caries infected tooth slices; experiment: Staining of caries infected tooth slices with colours, then washing with MQ water, NaCl and NaOH; settings: for staining of the tooth slice after NaCl and NaOH (Day 4): after NaCl 1 M and NaOH 0.5 M over night, visible light, UV or fluorescence microscopy; for kind of binding to carious tissue in infected teeth (conclusion): concluded from staining after NaCl and NaOH washes
Protocol: This experiment aimed to see if the added colours SEEK, Acid red 1, Lucifer Yellow, a combination of Lucifer Yellow and Acid red 1, or 5-(2-2-hydrazinyl-2-oxoethylthio)acetamido)-2-(3-hydroxy-6-oxo-6H-xanthen-9-yl)benzoic acid, Alexa Fluor® 594 and Alexa 350 bind to the surface of caries or not, after excavation down to a clinically caries free denoted surface. Experiments were performed during 4 days.
Whole caries infected tooth was added to an ortho acryl gel, which after hardening was used as a holder prior to sawing (saw of brand Zaw Micro Tone, German). Slices, having a thickness of 150 μm, were left over night in each colour to be tested (Day one). On the second day, the colours were washed out by rinsing the slices with MQ water and the teeth sections were photographed under either a microscope (6.7×; visible light), in UV (no microscope) or under a fluorescence microscope (100×). Thereafter, an aqueous salt solution (NaCl, 1 M) was added to the slices and incubated over night. On the third day the slices were washed with MQ water and thereafter the same detection procedures were used as described above. Finally the tooth slices were exposed to an aqueous solution of NaOH (0.5 M) over night. The washing and detection path were then repeated as described previously (Day 4).

carious dentin tissue [4] = experiment: Rinsing of carious dentin tissue labelled with a dye
healthy dentin tissue [5] = experiment: FTIR of healthy dentin tissue treated with Lucifer Yellow; set-up: species or system human; settings: Lucifer Yellow 13 mM aqueous, overnight, no peak at 1740 cm−1 in any sample
Excerpt: (§1) Extracted permanent human teeth with no previous dental restorations were selected due to their severe carious tissue status and analysed with FTIR within one week after extraction. The outermost part of the carious dental lesions was removed. The remaining dental carious tissue was divided into two layers; one outer layer with discoloured, soft and infected dental carious tissue and one inner layer that was excavated down to the observed uncoloured hard surface of the remaining healthy dentin controlled by tactile procedures.
(§2) Healthy dentin tissue and carious dentin tissue from the innermost layer were collected. This healthy dentin tissue sample and carious dentin tissue sample were then each divided into three samples.
(§3) The healthy dentin tissue sample (26 mg) was divided and treated as follows. […] Fluorescence of bounded hydrazine derivate Lucifer Yellow was checked by a UV lamp. […] The third sample, hereinafter denominated sample S3, (7 mg) and the last procedure was treated with NaBH4 (0.5 M in ethanol) and washed with concentrated ethanol to reduce aldehydes and ketones before the addition of an aqueous solution of the hydrazine derivate Lucifer Yellow (13 mM), repeated rinsing with purified water before dried and analysed.
(§4) Thus, in total 6 samples (three from the healthy dentin tissue and three from the carious dentin tissue) were analysed with FTIR within one week after extraction. […]

carious dentin tissue [6] = experiment: FTIR of carious dentin tissue treated with Lucifer Yellow; set-up: species or system human
Excerpt: as §1, §2
as §3, with “analysed. […]” for “analysed.”
as §4

carious dentin tissue [7] = experiment: TOF-SIMS of carious dentin tissue treated with Lucifer Yellow
Protocol: FTIR-ATR and TOF-SIMS analyses were performed on a sample group consisting of carious tissue inner most layers selected and estimated with an exactness of a working dentist. Samples were pooled from 4-6 teeth of inner layer of carious tissue (37 mg). The pooled sample was divided into two subgroups where one was exposed to the hydrazine derivate Lucifer Yellow and further analysed with TOF-SIMS and the other only analysed with FTIR-ATR. An aqueous solution of the hydrazine derivate Lucifer Yellow (1.8 mM) was added to the inner layer carious tissue (19 mg) and after 1 hour exposure washed with an aqueous solution of NaOH (0.5 M) and purified water before dried over vacuum. Events prolonged under a couple of hours from extraction to excavation to the drying and milling of the substances. Both FTIR-ATR and TOF-SIMS followed. FTIR-ATR was performed as described in Example 3 above. […] Each sample was attached to double side tape and analysed with a TOF-SIMS instrument (TOF-SIMS IV, CAMECA/IONTOF, GmbH, Germany). Positive secondary ion mass spectra were recorded from different areas of the sample at a size of […] and separated in a mass analyser and next compared with known mass spectra from the Ion Spec application (IonTof, GmbH, Germany, ver. 4.1) linked with the TOF-SIMS instrument. Negative secondary ion mass spectra were also recorded but gave no further information. […]

healthy dentin tissue [8] = experiment: TOF-SIMS of healthy dentin tissue treated with Lucifer Yellow; settings: positive mass spectra, treated similar to untreated

6-(2-carboxy-5-(hydrazinecarbonyl)phenyl)-1,2,2,10,10,11-hexamethyl-2,10-dihydro-1H-pyrano[3,2-g]diquinoline-11-ium-4,8-diyl)methanesulfonate [Alexa Fluor® 594]
sensitivity of caries detection compared with tactile control by a dentist [1]: better and more sensitive method for detecting carious dentin tissue than tactile control
staining of the cavity, first staining ([1]; 15-50 mM aqueous solution, cavity obtained with Carisolv): intense dark bluish colour
staining of the surface after second Carisolv treatment and excavation ([1]; final attempt to stain): no staining took place
staining of the surface after first Carisolv treatment and excavation ([1]; surface judged free of caries by dentist's tactile control): very slight staining at the center of the cavity
staining of the surface after drilling until no staining visible [2]: staining always took place after the drilling had been performed
staining of the tooth slice after NaCl and NaOH (Day 4) [3]: still contained colourants
staining of the tooth slice after NaCl and NaOH (Day 4) ([3]; listed as Alexa Fluor 594®): staining
kind of binding to carious tissue in infected teeth (conclusion) [3]: bind irreversibly

CC(=O)Nc1cc(S(=O)(=O)[O-])cc2cc(S(=O)(=O)[O-])c(/N=N/c3ccccc3)c(O)c12.[Na+].[Na+] [Acid red 1, reference compound]
effect of rinsing on dye bonded to carious dentin tissue (carious dentin tissue [4]): release of the dye bonded to the carious dentine tissue
staining of the tooth slice after incubation with 1 M NaCl ([3]; 150 μm slices left over night in colour, rinsed with MQ water, NaCl 1 M over night): only little staining remained
staining of the tooth slice after NaCl and NaOH (Day 4) [3]: no colouring of the slice treated with Acid red 1 could be detected using visible light and barely with microscope
kind of binding to carious tissue in infected teeth (conclusion) [3]: binds in a reversible way

NNC(=O)NN1C(=O)c2cc(S(=O)(=O)O)cc3c(N)c(S(=O)(=O)O)cc(c23)C1=O [Lucifer Yellow]
reaction with healthy dentin tissue (healthy dentin tissue [5]): no reaction takes place
reaction with carious dentin tissue (carious dentin tissue [6]; FTIR, Lucifer Yellow 13 mM aqueous, overnight, peak at 1740 cm−1 no longer present): reaction has taken place
selectivity of reaction, carious versus healthy dentin tissue (FTIR) (carious dentin tissue [6]; concluded from FTIR of samples S1-S6): selectively reacts with carious dentin tissue
bonding to carious dentin tissue (TOF-SIMS) (carious dentin tissue [7]; Lucifer Yellow 1.8 mM, 1 hour, washed with NaOH 0.5 M, positive spectra, repeated difference of 106 mass units): covalently bound to the carious tissue
selectivity of reaction, carious versus healthy dentin tissue (TOF-SIMS) (carious dentin tissue [7]; concluded from TOF-SIMS spectra): selectively reacts with carious dentin tissue
reaction with healthy dentin (TOF-SIMS) (healthy dentin tissue [8]): did not react with healthy dentin
staining of the tooth slice after NaCl and NaOH (Day 4) [3]: still contained colourants
kind of binding to carious tissue in infected teeth (conclusion) [3]: bind irreversibly

NNC(=O)CSCC(=O)Nc1ccc(-c2c3ccc(=O)cc-3oc3cc(O)ccc23)c(C(=O)O)c1 [5-(2-2-hydrazinyl-2-oxoethylthio)acetamido)-2-(3-hydroxy-6-oxo-6H-xanthen-9-yl)benzoic acid]
staining of the tooth slice after NaCl and NaOH (Day 4) [3]: still contained colourants; also recorded: staining
kind of binding to carious tissue in infected teeth (conclusion) [3]: bind irreversibly

Cc1c(CC(=O)NN)c(=O)oc2cc(N)c(S(=O)(=O)O)cc12 [Alexa 350]
staining of the tooth slice after NaCl and NaOH (Day 4) [3]: still contained colourants
kind of binding to carious tissue in infected teeth (conclusion) [3]: bind irreversibly
